Patent US10836763B2, “5 to 7 membered heterocyclic amides as JAK inhibitors” (priority 2018, dated 2020)
Where two headings read alike, the source gives them in different places.

Assays:
Assay type in all cases: cell-based
[1] = system: IFNγ stimulated STAT1 phosphorylation in CD14+ monocytes; test: Cellular JAK potency assay: inhibition of IFNγ-induced pSTAT1; settings: Homo sapiens, Monocyte, 0.5 h, read-out: pIC50, inhibition of IFNγ-induced pSTAT1 (converted)
Source text: Data are expressed as pIC50 (negative decadic logarithm IC50) values.

[2] = system: IL-12 stimulated STAT4 phosphorylation in CD3+ T cells; test: Cellular JAK potency assay: inhibition of IL-12-induced pSTAT4; settings: Homo sapiens, T-cell, 0.5 h, read-out: pIC50, inhibition of IL-12-induced pSTAT4 (converted)
Experimental: Assay 16: Cellular JAK Potency Assay: Inhibition of IL-12-Induced pSTAT4
The potency of test compounds for inhibition of interleukin-12 (IL-12) stimulated STAT4 phosphorylation was measured in CD3-positive (CD3+) T cells derived from human whole blood (Stanford Blood Center) using flow cytometry. Because IL-12 signals through JAK, this assay provides a measure of JAK cellular potency.
CD3+ T cells were identified using a phycoerythrin (PE) conjugated anti-CD3 antibody (clone UCHT1, BD Biosciences), and an Alexa Fluor 647 conjugated anti-pSTAT4 antibody (clone 38/p-Stat4, BD Biosciences) was used to detect STAT4 phosphorylation.
Human peripheral blood mononuclear cells (PBMC) were isolated from human whole blood of healthy donors using a ficoll gradient. […] After incubation, cells were washed twice in FACS buffer before being analyzed using a MACSQuant flow cytometer (Miltenyi). To determine the inhibitory potency of the test compound, the median fluorescent intensity (MFI) of pSTAT4 was measured in CD3+ T cells. IC50 values were determined from analysis of the inhibition curves of MFI vs compound concentration. Data are expressed as pIC50 (negative decadic logarithm IC50) values.

[3] = system: GM-CSF stimulated STAT5 phosphorylation in CD14+ monocytes; test: Cellular JAK potency assay: inhibition of GM-CSF-induced pSTAT5; settings: Homo sapiens, Monocyte, 0.25 h, read-out: pIC50, inhibition of GM-CSF-induced pSTAT5 (converted)
Experimental: Assay 15: Cellular JAK Potency Assay: Inhibition of GM-CSF-Induced pSTAT5
The potency of test compounds for inhibition of granulocyte-macrophage colony-stimulating factor (GM-CSF) stimulated STAT5 phosphorylation was measured in CD14-positive (CD14+) monocytes derived from human whole blood (Stanford Blood Center) using flow cytometry. Because GM-CSF signals through JAK, this assay provides a measure of JAK cellular potency.
Monocytes were identified using a fluorescein isothiocyanate (FITC) conjugated anti-CD14 antibody (Clone RM052, Beckman Coulter), and an Alexa Fluor 647 conjugated anti-pSTAT5 antibody (pY694, BD Biosciences) was used to detect STAT5 phosphorylation.
Human peripheral blood mononuclear cells (PBMC) were isolated from human whole blood of healthy donors using a ficoll gradient. […] Cells were washed twice with FACS buffer, and then re-suspended in 1:10 […] Alexa Fluor 647:FACS buffer (100 μL) for 30 min at RT in the dark, washed twice in FACS buffer, and analyzed using a MACSQuant flow cytometer (Miltenyi).
To determine the inhibitory potency of the test compound, the median fluorescent intensity (MFI) of pSTAT5 was measured in CD14+ monocytes. IC50 values were determined from analysis of the inhibition curves of MFI vs compound concentration. Data are expressed as pIC50 (negative decadic logarithm IC50) values.

Row | SMILES | IC50 ([1]; CD14+ monocytes, IFNγ 0.6 ng/mL, 30 min, flow cytometry) [nM] | IC50 ([2]; CD3+ T cells, IL-12 10 ng/mL, 30 min, flow cytometry) [nM] | IC50 ([3]; CD14+ monocytes, GM-CSF 0.3 ng/mL, 15 min, flow cytometry) [nM] | IC50 [1] [nM] | IC50 [2] [nM] | IC50 [3] [nM]
1 | CCCN1Cc2[nH]c(-c3n[nH]c4cc(-c5ccc(O)cc5CC)ccc34)nc2C[C@H]1C(=O)N1CCN(CCO)CC1 [Compound 1, (S)-(2-(6-(2-ethyl-4-hydroxyphenyl)-1H-indazol-3-yl)-5-propyl-4,5,6,7-tetrahydro-3H-imidazo[4,5-c]pyridin-6-yl)(4-(2-hydroxyethyl)piperazin-1-yl)methanone] | 31.6 | 631 | 200 |  |  | 
2 | CCc1cc(O)ccc1-c1ccc2c(-c3nc4c([nH]3)CN(C(C)C)[C@H](C(=O)N3CCCN(C)CC3)C4)n[nH]c2c1 [Compound 4, (S)-(2-(6-(2-ethyl-4-hydroxyphenyl)-1H-indazol-3-yl)-5-isopropyl-4,5,6,7-tetrahydro-3H-imidazo[4,5-c]pyridin-6-yl)(4-methyl-1,4-diazepan-1-yl)methanone] |  |  |  | 50.1 | 1000 | 200
